This is an account of results in ChEMBL document CHEMBL1146877, “D609 blocks cell survival and induces apoptosis in neural stem cells” (Bioorg Med Chem Lett, 2006).

What all share (type): functional, cell-based
Conditions in all cases: Rattus norvegicus

In assay [1] the test system is NSC. Put plainly: Decrease in viability of NSC cells at 37.53 uM for 48 hrs in presence of bFGF.
Assay [2] deals with NSC. As to the kind of experiment: Decrease in viability of NSC cells at 56.29 uM for 72 hrs in presence of bFGF.
Assay [3] concerns NSC. As to the kind of experiment: Induction of apoptosis in NSC cells by TUNEL assay.
The subject of assay [4] is NSC. As to the kind of experiment: Inhibition of reactive oxygen species accumulation in NSC cells relative to control.
Assay [5] relates to NSC. As to the kind of experiment: Decrease in viability of NSC cells at 18.76 uM for 24 hrs in presence of bFGF.
In assay [6] the test system is NSC. As to the kind of experiment: Induction of necrosis in NSC cells assessed as lactate dehydrogenase release at 56.29 uM within 72 hrs relative to control.

Molecules are shown by their SMILES. The source made the active and inactive calls. No cut-off for these calls is given here.

For `S=C(S)OC1CC2CC1C1CCCC21` (stereo unspecified), the result with NSC [1], with NSC [2], in the assay on NSC [3], in the assay with NSC [4] and in the assay with NSC [5] was Active. Also, the result in the assay on NSC [6] was inactive.
